Results taken from publication PMC6201879, “N-substituted phenylbenzamides of the niclosamide chemotype attenuate obesity related changes in high fat diet fed mice” (PLoS ONE, 2018).
“And” between values parts separate entries of the source, which are not always exact repeats. Equal entries are not always repeated. Where two headings read alike, the source gives them in different places.

Experiments:
[1] = tested on: HEK293 cells stably transduced with the human OCT3 transporter; assay: Cellular oxygen consumption rate (OCR), MitoXpress Xtra; type: cell-based; details: HEK293 cells expressing human OCT3; compared to DMSO control; 2 hours
How it was run: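 HEK293 cells stably expressing human OCT3, treated with four compound concentrations; oxygen consumption followed by MitoXpress Xtra TR-F lifetime (340/650 nm) every 2 min for 2 h. Lifetime slope from the linear portion taken as OCR; FCCP (1 μM) as stimulated control, differences versus DMSO by t-test.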

[2] = Metabolic stability in human liver microsomes; type: in vitro ADME
How it was run: (§1)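 Microsomes at 0.5 mg/ml in 100 mM phosphate buffer with 5 mM MgCl2, run with 1 mM NADPH, without NADPH, and heat-inactivated without NADPH. Timed samples quenched in cold acetonitrile with internal standards; parent measured by LC/MS/MS (MRM), duplicates.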

[3] = Metabolic stability in mouse liver microsomes; type: in vitro ADME; details: 60 min
How it was run: as §1

[4] = Pharmacokinetic profile in Sprague Dawley rats (IV and PO); type: in vivo; details: Mean + SD (n = 3)
How it was run: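 Male/female unspecified Sprague Dawley rats, 6–8 weeks (n = 3 per group), fasted overnight, were dosed at 1 mg/kg IV (5% Cremophor EL/20% PEG400 in water) or 5 mg/kg PO (PBS). Plasma was sampled to 24 h and analysed by LC-MS/MS. Non-compartmental parameters are reported as mean and SD.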

[5] = tested on: Salmonella typhimurium TA100; details: for Mean Revertant Colony Counts TA-100 SP9+: with S9; for Mean Revertant Colony Counts TA-100 S9-: without S9
[6] = tested on: Salmonella typhimurium TA98; assay: Ames assay, strain TA98; details: for Mean Revertant Colony Counts TA98 SP9+: with S9; for Mean Revertant Colony Counts TA98 S9-: without S9
[7] = 0.5mg/ml microsomes and 1mM NADPH
[8] = 0.5mg/ml microsomes without NADPH
[9] = heat inactivated microsomes without NADPH

CC(C)(C)c1ccc(O)c(C(=O)Nc2cc(C(=O)O)ccc2Cl)c1 [Compound 600494, 3-{[2-Hydroxy-5-(tert-butyl)benzene]amido}-4chloro-benzoic acid]
change in respiration / oxygen consumption rate (OCR) [1]: no change in respiration
Remaining Percentage of 60 min (%), Human, Tested Sample [2, 7]: 99.4%
Remaining Percentage of 60 min (%), Human, Negative Control [2, 8]: 92.8%
Remaining Percentage of 60 min (%), Human, Heat-inactivated Control [2, 9]: 114.2%
Remaining Percentage of 60 min (%), Mouse, Tested Sample [3, 7]: 109.6%
Remaining Percentage of 60 min (%), Mouse, Negative Control [3, 8]: 68.9%
Remaining Percentage of 60 min (%), Mouse, Heat-inactivated Control [3, 9]: 98.5%
AUC _%Extrap_obs (IV) ([4]; IV 1 mg/kg): 1.23 +/- 1.05%
AUCl ast/D (IV) ([4]; IV 1 mg/kg): 18200 ± 1190 ng·kg·h/mL/mg
V ss_obs ([4]; IV 1 mg/kg): 0.13 ± 0.035 L/kg
AUC _%Extrap_obs (PO) ([4]; PO 5 mg/kg in PBS): 3.64 +/-4.73%
AUC last / D (PO) ([4]; PO 5 mg/kg in PBS): 2490 ± 542 ng·kg·h/mL/mg
T 1/2 (PO) ([4]; PO 5 mg/kg in PBS, 5 mg/kg): 4.6 h and 4.58 ± 2.61 h
F (oral bioavailability) ([4]; PO 5 mg/kg vs IV 1 mg/kg): 14.17 +/- 3.8%
half-life ([4]; Sprague Dawley, rat, plasma, iv, 1 mg/kg, IV 1 mg/kg, read-out: T 1/2 (IV) (converted)): 5.36 ± 2 h
Cmax ([4]; Sprague Dawley, rat, plasma, po, 5 mg/kg, PO 5 mg/kg in PBS): 1850 ± 674 ng/mL
half-life ([4]; Sprague Dawley, rat, plasma, po, 5 mg/kg, PO 5 mg/kg in PBS, read-out: T 1/2 (PO) (converted)): 5.3 h
bioavailability ([4]; Sprague Dawley, rat, plasma, po, 5 mg/kg, PO 5 mg/kg vs IV 1 mg/kg, read-out: F (oral bioavailability)): 14%
C0 ([4]; rat, plasma, IV 1 mg/kg): 22900 ± 4300 ng/mL
AUC(0-inf) ([4]; rat, plasma, IV 1 mg/kg, read-out: AUC Inf (IV)): 18400 ± 1400 ng·h/mL
AUC(0-t) ([4]; rat, plasma, IV 1 mg/kg, read-out: AUC last (IV)): 18200 ± 1190 ng·h/mL
clearance ([4]; rat, plasma, IV 1 mg/kg, read-out: Cl_obs): 0.91 ± 0.068 mL/min/kg
MRT inf ([4]; rat, plasma, IV 1 mg/kg, read-out: MRT Inf_obs (IV)): 2.39 ± 0.69 h
Tmax ([4]; rat, plasma, PO 5 mg/kg in PBS): 5.33 ± 2.31 h
AUC(0-inf) ([4]; rat, plasma, PO 5 mg/kg in PBS, read-out: AUC Inf (PO)): 13000 ± 3520 ng·h/mL
AUC(0-t) ([4]; rat, plasma, PO 5 mg/kg in PBS, read-out: AUC last (PO)): 12400 ± 2710 ng·h/mL
MRT inf ([4]; rat, plasma, PO 5 mg/kg in PBS, read-out: MRT Inf_obs (PO)): 7.89 ± 1.49 h
Mean Revertant Colony Counts TA-100 SP9+ ([5]; 1.5 ug/Well): 20.7
Mean Revertant Colony Counts TA-100 S9- ([5]; 1.5 ug/Well): 30.0
Mean Revertant Colony Counts TA-100 SP9+ ([5]; 4 ug/Well): 17.3
Mean Revertant Colony Counts TA-100 S9- ([5]; 4 ug/Well): 27.0
Mean Revertant Colony Counts TA-100 SP9+ ([5]; 10 ug/Well): 18.0
Mean Revertant Colony Counts TA-100 S9- ([5]; 10 ug/Well): 25.0
Mean Revertant Colony Counts TA-100 SP9+ ([5]; 25 ug/Well): 22.0
Mean Revertant Colony Counts TA-100 S9- ([5]; 25 ug/Well): 24.0
Mean Revertant Colony Counts TA-100 SP9+ ([5]; 64 ug/Well): 16.3
Mean Revertant Colony Counts TA-100 S9- ([5]; 64 ug/Well): 33.0
Mean Revertant Colony Counts TA-100 SP9+ ([5]; 160 ug/Well): 21.0
Mean Revertant Colony Counts TA-100 S9- ([5]; 160 ug/Well): 25.7
Mean Revertant Colony Counts TA-100 SP9+ ([5]; 400 ug/Well): 21.3
Mean Revertant Colony Counts TA-100 S9- ([5]; 400 ug/Well): 22.3
Mean Revertant Colony Counts TA-100 SP9+ ([5]; 1000 ug/Well): 20.3
Mean Revertant Colony Counts TA-100 S9- ([5]; 1000 ug/Well): 17.7
fold increase in the mean number of revertant colonies, TA100 ([5]; any concentration tested, vs negative control): < 2 fold
Mean Revertant Colony Counts TA98 SP9+ ([6]; 1.5 ug/Well): 8.7
Mean Revertant Colony Counts TA98 S9- ([6]; 1.5 ug/Well): 7.3
Mean Revertant Colony Counts TA98 SP9+ ([6]; 4 ug/Well): 9.3
Mean Revertant Colony Counts TA98 S9- ([6]; 4 ug/Well): 7.7
Mean Revertant Colony Counts TA98 SP9+ ([6]; 10 ug/Well): 7.7
Mean Revertant Colony Counts TA98 S9- ([6]; 10 ug/Well): 7.3
Mean Revertant Colony Counts TA98 SP9+ ([6]; 25 ug/Well): 12.0
Mean Revertant Colony Counts TA98 S9- ([6]; 25 ug/Well): 6.7
Mean Revertant Colony Counts TA98 SP9+ ([6]; 64 ug/Well): 8.0
Mean Revertant Colony Counts TA98 S9- ([6]; 64 ug/Well): 6.0
Mean Revertant Colony Counts TA98 SP9+ ([6]; 160 ug/Well): 15.7
Mean Revertant Colony Counts TA98 S9- ([6]; 160 ug/Well): 11.7
Mean Revertant Colony Counts TA98 SP9+ ([6]; 400 ug/Well): 10.3
Mean Revertant Colony Counts TA98 S9- ([6]; 400 ug/Well): 14.0
fold increase in revertant colonies, TA98 ([6]; 400 μg/well in the absence of S9 mix): ≥ 2 fold
Mean Revertant Colony Counts TA98 SP9+ ([6]; 1000 ug/Well): 11.3
Mean Revertant Colony Counts TA98 S9- ([6]; 1000 ug/Well): 10.7
